The test deals with sickle cell patients with severe chronic anaemia. Briefly: Clinical trial: hematological parameters during treatment with Siklos in HU-naive sickle cell patients with severe chronic anaemia. It is filed as in vivo, human. As to the method:
This study was conducted with a pharmaceutical composition identical to that of Siklos.
The dose of hydroxycarbamide is comprised from 5 to 30 mg/kg/day.
The results of the evaluation of the hematological parameters of the patients are recorded in the table below.

The mark [1] stands for this setting: 12 months after the start of the treatment, p<0.001.

As to `NC(=O)NO` [hydroxycarbamide, hydroxyurea], the “Haemoglobin, value after initiation of the treatment” value (12 months after initiation of Siklos (between 10 and 14 months), 41 patients, base value 7.16 ± 1.06, 5 to 30 mg/kg/day) amounted to 7.89 ± 1.11 g/dL. Besides, the “Variation of the haemoglobin, change with respect to the base value” (12 months after initiation of Siklos (between 10 and 14 months), 41 patients, p 0.001) turned out to be 0.73 ± 1.30 g/dL. Moreover, under setting [1], the “Mean blood volume, change” value is reported as “+10.82±11.42” and the “Number of reticulocytes, change” value is −91.5±115.6. For the setting “after the start of the treatment, indicating adequate compliance”, the “Absolute number of neutrophil” value is reported as “decreased”. Moreover, the “Evolution of the fetal haemoglobin, change with respect to the base value” (at least 6 months after initiation of Siklos (between 5 and 14 months), 23 patients, p <0.001) is reported as 6.37±6.38%. Besides, the “Variation of the haemoglobin, change with respect to the base value” (at least 6 months after initiation of Siklos (between 5 and 14 months), 55 patients, p <0.001) worked out at 0.65 ± 1.24 g/dL.

The values are drawn from patent US20260034079A1, “PHARMACEUTICAL COMPOSITION CONTAINING HYDROXYUREA FOR USE IN THE TREATMENT OF SEVERE CHRONIC ANEMIA” (THERAVIA, priority 2019, published 2026).
